From patent US6750247B2, “Sponge-derived terpenoids and methods of use” (Galileo Laboratories, Inc., priority 2001, dated 2004)

System: neonatal cardiomyocytes
Test: Myocyte calcium-contractility assay (cardiomyocyte beating anoxia assay)
Format: cell-based, rat
Conditions: 16 hr anoxia, 2 hr reoxygenation; for Percent Activity: at dose for max. activity, Fluo-4 fluorescence
Description: 10× Heart Dissection Solution (HDS) contains the following components (g/l) in tissue culture grade water: NaCl, 68; HEPES, 47.6; NaH2PO4, 2; Glucose, 10; KCl, 4; MgSO4, 1, pH adjusted to 7.4. Prior to filter sterilization of diluted (1× HDS) solution, 10 mg phenol red was added to each 500 milliliters of medium. Transferrin and Bovine Insulin were obtained from Life Technologies, and resuspended at a concentration of 4 mg/ml in tissue culture grade water. DMEM-F12- DMEM/F12, powder, 1:1 containing glutamine and pyridoxine hydrochloride was purchased from Life Technologies. To one liter equivalent of the powder was added 2.43 g of sodium bicarbonate and 10 ml of 100× Penicillin/Streptomycin in 950 ml of tissue culture grade water with stirring. The pH was adjusted to 7.2 with 1M HCl and volume was adjusted to 1 liter. The solution was filter sterilized then 2.5 ml of 4 mg/ml Transferrin, 250 μl 4 mg/ml Insulin and 30.7 mg of bromodeoxyuridine were added. DMEM-F12 was also prepared with 4% FBS for pre-coating the tissue culture plates and initial suspension of the cardiomyocyte pellet. Collagenase solution-49 mg of collagenase was resuspended in 120 ml 1× HDS.
Tissue culture plasticware was pre-coated with DMEM-F12-4% FBS by incubating 50 μl per well of a 96-well plate. Two-day old rat pups were removed from their mothers and placed in a sterile container. Pups were dipped quickly into 70% alcohol, then decapitated and the body was placed in an empty sterile tissue culture dish. An incision was made starting at the neck and progressing towards the belly, cutting through the sternum. The heart was removed and placed in a tissue culture dishes containing 1× HDS. The atria were trimmed, and the remaining ventricles were placed into a separate tissue culture dish containing 1× HDS, where they were sectioned into 3-4 pieces each. Ventricles were then transferred to a sterile 250 ml glass flask and the 1× HDS was removed. Twenty milliliters of pre-warmed collagenase solution were added to the ventricles, followed by incubation at 37° C. with shaking. After 30 minutes, the collagenase solution was removed and replaced with 20 ml fresh pre-warmed collagenase. Incubation was continued for an additional 20 minutes. At the end of the incubation, any tissue chunks were allowed to settle prior to removing the collagenase (containing the isolated cardiomyocytes) from the disrupted tissue pieces. The isolated myocytes were added to a 50 ml Falcon tube containing 2 ml Fetal Bovine Serum (FBS). The remaining tissue pieces were subjected to a second digestion by adding 20 ml fresh pre-warmed collagenase and incubating as above for 20 minutes. This second digest was then centrifuged at 1000 rpm for 10 minutes in a GH 3.8 A rotor in an Allegra 6 Centrifuge (Beckman Instruments, Fullerton, Calif.). The resulting supernatant was discarded, and the cell pellet was suspended with 4 ml FBS. The resulting cell suspension was placed in the incubator at 37° C. This step was repeated several additional times to harvest additional material.
Percoll gradients were prepared by adding 2.5 ml of 10× HDS to 22.5 ml of Percoll (Life Technologies) with mixing (Percoll Stock). Top Gradient solution (11 ml Percoll Stock and 14 ml 1× HDS) and Bottom Gradient solution (13 ml Percoll Stock and 7 ml 1× HDS) were prepared. Four milliliters of the Top Gradient solution were transferred into 6×15 ml sterile Falcon tubes. Three milliliters of the Bottom Gradient solution were placed in each tube by inserting a serological pipette to the bottom of the tube and slowly adding the liquid.
All the digests (5 in total) were pooled in one 50 ml Falcon tube and centrifuged on a tabletop Allegra 6 Centrifuge (Beckman Instruments, Fullerton, Calif.) using a GH 3.8 A rotor at 1000 rpm for 10 minutes. The supernatant was discarded, and the cell pellet was resuspended in 12 ml of 1× HDS. Two milliliters of the cell suspension was added to the top of each gradient. […]

| SMILES | Dose for Max. Activity [µg/mL] | cell viability | Percent Activity |
| --- | --- | --- | --- |
| CC1=CCC[C@H](C)[C@]1(C)CC/C(C)=C/CCc1ccoc1 [(+)-subersin (2), 3-[4-methyl-6-(1,2,6-trimethyl-cyclohex-2-enyl)-hex-3-enyl]-furan] | 8 | increased cell viability | 78% |
| CC1=C(CC/C(C)=C/Cc2cc(C(=O)O)ccc2O)[C@]2(C)CCCC(C)(C)[C@H]2CC1 [(−)-subersic acid (1), 4-hydroxy-3-[3-methyl-5-(2,5,5,8a-tetramethyl-3,4,4a,5,6,7,8,8a-octahydro-naphthalen-1-yl)-pent-2-enyl]-benzoic acid] | 25 | increased cell viability | 61% |
| CC1=C(CC/C(C)=C/CC/C(C)=C/Cc2cc(O)ccc2O)C(C)(C)CCC1 [jaspaquinol (3), 2-[3,7-dimethyl-9-(2,6,6-trimethyl-cyclohex-1-enyl)-nona-2,6-dienyl]-benzene-1,4-diol] |  |  | No activity at 75 μg/mL |
